One experiment concerns capillary circulation. Put plainly: Laser Doppler study of creams in five human subjects (second Example 7). It counts as in vivo. As to conditions: positive control formulation containing 0.1% methyl nicotinate. The text has this:
This example illustrates delivery of nitric oxide formulations to five human subjects, using procedures and formulations similar to those discussed in Example 6. Each person served as their own control for the testing. A Moor Instruments Laser Doppler was used to determine circulation. […] The formulations used produce positive, almost immediate results when applied to the skin which, in these studies, was manifested by vasodilatation of the cutaneous vascular system.
For each subject, the following creams were applied: a negative control formulation (containing no NO), 0.010 gram of a 10,000 ppm NO formulation, 0.020 gram of a 10,000 ppm NO formulation, and a positive control formulation containing 0.1% methyl nicotinate. The formulations were prepared using procedures similar to those discussed in Example 1.

Experiment [1] relates to micro-capillary blood flow to skin. Description: Laser Doppler study, closed Hilltop chamber on forearm, three human female subjects (Example 6). It is filed as in vivo. As to conditions: 1/10% in alcohol applied to the skin. The text has this:
The formulation used in these studies contained nitric oxide dispersed in a lipid matrix. […] Nitric oxide is a very rapid acting molecule, and these studies used a system that employed laser Doppler with a covered chamber. The formulation was placed into the chamber and then attached to the skin by an adhesive layer on the covering. This provided a stable measuring device as determined by multiple normal evaluations of the capillary blood flow without treatment of nitric oxide.
A known positive control, methyl nicotinate, was applied to the skin at a concentration of 1/10% in alcohol. […] The vascular dynamics are such that when the blood vessels dilate physical parameters follow Bernoulli's law. […] The laser Doppler device accurately measured these parameters.
In these studies, the participants were healthy females aged 30 to 55 years. They were in good health as determined by the medical history and were not taking any prescription medications. All study participants read and signed the informed consent statement prior to any study procedures being performed. […]
A Moor Instruments DRT4 Laser Doppler Blood Flow Monitor (Devon, England) was used in these studies. The laser Doppler technique measured blood flow in the microcapillaries of the skin that are close to the skin surface and the blood flow in underlying arterioles and venules that help to regulate skin temperature. […]

For `COC(=O)c1cccnc1` [methyl nicotinate], the vasodilatation result in the experiment with capillary circulation was “vasodilatation was observed”. In addition, in experiment [1], the “vasodilator response (positive control)” value is reported as “rapid response typical of the vasodilator”.
